Test results published in patent publication US20160108027A1, “SUBSTITUTED BENZOXAZOLES” (BAYER PHARMA AKTIENGESELLSCHAFT, priority 2013, published 2016).

Legend:
[1] = biological target: T1, thrombin (Homo sapiens, UniProt P00734); test: Determination of the thrombin-inhibitory activity in plasma samples (ecarin-activated); type: biochemical; details: citrate plasma, ecarin activation, fluorogenic thrombin substrate; in some cases means of individual determinations
Procedure, shortened: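 Citrate plasma activated with ecarin (final 20 mU per reaction) in Ca buffer (Hepes, NaCl, CaCl2, PEG), with compound diluted from DMSO into water. Fluorogenic thrombin substrate at final 50 μmol/l; fluorescence (ex 360/em 465 nm) read each minute for 20 minutes, with buffer-only unstimulated control.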

[2] = biological target: T1, thrombin; test: Measurement of the thrombin inhibition in buffer; type: biochemical; details: human thrombin 0.06 nmol/l in Tris buffer pH 7.4, 22° C., substrate Boc-Asp(OBzl)-Pro-Arg-AMC; in some cases means of individual determinations
Procedure, shortened: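 Compound pre-incubated 15 min at 22° C with 0.06 nmol/l human thrombin in 50 mmol/l Tris, 100 mmol/l NaCl, 0.1% BSA, pH 7.4, then 5 μmol/l Boc-Asp(OBzl)-Pro-Arg-AMC added for 30 min. AMC fluorescence read at 360/460 nm against DMSO controls; IC50 from concentration–activity curves.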

| IC50 [1] [nM] | IC50 [2] [nM] | Compound |
| --- | --- | --- |
| 17 | 8.8 | COc1cc(C(=O)N2CC(C)(C)OCC2C(C)(C)O)cc2nc(NCc3cc(Cl)ccn3)oc12 (single isomer, unassigned) [Example 93, (2-{[(4-Chloropyridin-2-yl)methyl]amino}-7-methoxy-1,3-benzoxazol-5-yl) [5-(2-hydroxypropan-2-yl)-2,2-dimethylmorpholin-4-yl]methanone] |
| 37 | 7.3 | COc1cc(C(=O)N2CC(C)(CC(C)O)OCC2(C)C)cc2nc(NCc3cc(Cl)ccn3)oc12 (racemic) [Example 34, (2-{[(4-Chloropyridin-2-yl)methyl]amino}-7-methoxy-1,3-benzoxazol-5-yl) [2-(2-hydroxypropyl)-2,5,5-trimethylmorpholin-4-yl]methanone] |
| 6.5 | 0.8 | COc1cc(C(=O)N2CC(C)(CC(C)O)OCC2CF)cc2nc(NCc3cc(Cl)ccn3)oc12 (single isomer, unassigned) [Example 23, (2-{[(4-Chloropyridin-2-yl)methyl]amino}-7-methoxy-1,3-benzoxazol-5-yl) [5-(fluoromethyl)-2-(2-hydroxypropyl)-2-methylmorpholin-4-yl]methanone] |
| 24 | 11 | COc1cc(C(=O)N2CC(C)OCC2C2CC(O)C2)cc2nc(NCc3cc(Cl)ccn3)oc12 (single isomer, unassigned) [Example 47, (2-{[(4-Chloropyridin-2-yl)methyl]amino}-7-methoxy-1,3-benzoxazol-5-yl) [5-(3-hydroxycyclobutyl)-2-methylmorpholin-4-yl]methanone] |
| 47 | 17 | COc1cc(C(=O)N2CC(C)CCC2CCO)cc2nc(NCc3cc(Cl)ccn3)oc12 (single isomer, unassigned) [Example 85, (2-{[(4-Chloropyridin-2-yl)methyl]amino}-7-methoxy-1,3-benzoxazol-5-yl) [2-(2-hydroxyethyl)-5-methylpiperidin-1-yl]methanone] |
| 52 | 33 | COc1cc(C(=O)N2CCCC2(C)C(=O)N2CC(F)C2)cc2nc(NCc3cc(Cl)ccn3)oc12 (single isomer, unassigned) [Example 17, (2-{[(4-Chloropyridin-2-yl)methyl]amino}-7-methoxy-1,3-benzoxazol-5-yl){2-[(3-fluoroazetidin-1-yl)carbonyl]-2-methylpyrrolidin-1-yl}methanone] |
| 12 | 2.5 | COc1cc(C(=O)N2CC(C)(CCO)OC[C@H]2C)cc2nc(NCc3cc(Cl)ccn3)oc12 (single isomer, unassigned) [Example 24] |
| 44 | 6.2 | COc1cc(C(=O)N2CC(C)(CC(C)O)OC[C@H]2C)cc2nc(NC(C)c3cc(Cl)ccn3)oc12 (stereo partly drawn) [Example 26, (2-{[1-(4-Chloropyridin-2-yl)ethyl]amino}-7-methoxy-1,3-benzoxazol-5-yl)[(5R)-2-(2-hydroxypropyl)-2,5-dimethylmorpholin-4-yl]methanone] |
| 11 | 1.7 | COc1cc(C(=O)N2CC(C)(CC(C)O)OCC2CF)cc2nc(NCc3cc(Cl)ccn3)oc12 (racemic) [Example 22, (2-{[(4-Chloropyridin-2-yl)methyl]amino}-7-methoxy-1,3-benzoxazol-5-yl) [5-(fluoromethyl)-2-(2-hydroxypropyl)-2-methylmorpholin-4-yl]methanone] |
| 55 | 10 | COc1cc(C(=O)N2CC(C)(CCO)OCC2CF)cc2nc(NCc3cc(Cl)ccn3)oc12 (stereo not shown) [Example 21, (2-{[(4-Chloropyridin-2-yl)methyl]amino}-7-methoxy-1,3-benzoxazol-5-yl) [5-(fluoromethyl)-2-(2-hydroxyethyl)-2-methylmorpholin-4-yl]methanone] |
| 27 | 17 | [2H]C([2H])(C)O[C@@H]1CC(CO)N(C(=O)c2cc(OC)c3oc(NC(C)c4cc(Cl)ccn4)nc3c2)C1 (stereo partly drawn) [Example 97, (2-{[1-(4-Chloropyridin-2-yl)ethyl]amino}-7-methoxy-1,3-benzoxazol-5-yl)[(4R)-4-[(1,1-^2H2)ethyloxy]-2-(hydroxymethyl)pyrrolidin-1-yl]methanone] |
| 53 | 34 | COc1cc(C(=O)N2CC(C)OCC2(C)CO)cc2nc(NCc3cc(Cl)ccn3)oc12 (single isomer, unassigned) [Example 19, (2-{[(4-Chloropyridin-2-yl)methyl]amino}-7-methoxy-1,3-benzoxazol-5-yl) [5-(hydroxymethyl)-2,5-dimethylmorpholin-4-yl]methanone] |
| 41 | 24 | COc1cc(C(=O)N2CC(C)OCC2(C)C)cc2nc(NCc3cc(Cl)ccn3)oc12 (single isomer, unassigned) [Example 45, (2-{[(4-Chloropyridin-2-yl)methyl]amino}-7-methoxy-1,3-benzoxazol-5-yl)(2,5,5-trimethylmorpholin-4-yl)methanone] |
| 33 | 21 | COc1cc(C(=O)N2CC(C)OCC2CC(C)(C)O)cc2nc(NCc3cc(Cl)ccn3)oc12 (racemic) [Example 55, (2-{[(4-Chloropyridin-2-yl)methyl]amino}-7-methoxy-1,3-benzoxazol-5-yl) [5-(2-hydroxy-2-methylpropyl)-2-methylmorpholin-4-yl]methanone] |
| 36 | 30 | COc1cc(C(=O)N2CCCC2(C)C(=O)N2CC(F)(F)C2)cc2nc(NCc3cc(Cl)ccn3)oc12 (single isomer, unassigned) [Example 16, (2-{[(4-Chloropyridin-2-yl)methyl]amino}-7-methoxy-1,3-benzoxazol-5-yl){2-[(3,3-difluoroazetidin-1-yl)carbonyl]-2-methylpyrrolidin-1-yl}methanone] |
| 27 | 17 | COc1cc(C(=O)N2CC(C)(C)OC[C@H]2CCO)cc2nc(NCc3cc(Cl)ccn3)oc12 [Example 58, (2-{[(4-Chloropyridin-2-yl)methyl]amino}-7-methoxy-1,3-benzoxazol-5-yl)[(5R)-5-(2-hydroxyethyl)-2,2-dimethylmorpholin-4-yl]methanone] |
| 66 | 39 | CCO[C@@H]1CC(CO)N(C(=O)c2cc(OC)c3oc(NC(C)c4cc(Cl)ccn4)nc3c2)C1 (stereo partly drawn) [Example 4, (2-{[1-(4-Chloropyridin-2-yl)ethyl]amino}-7-methoxy-1,3-benzoxazol-5-yl)[(4R)-4-ethoxy-2-(hydroxymethyl)pyrrolidin-1-yl]methanone] |
| 72 | 59 | COc1cc(C(=O)N2CC(C)OC[C@@H]2[C@@H](C)O)cc2nc(NCc3cc(Cl)ccn3)oc12 (stereo partly drawn) [Example 68, (2-{[(4-Chloropyridin-2-yl)methyl]amino}-7-methoxy-1,3-benzoxazol-5-yl){(5R)-5-[(1R)-1-hydroxyethyl]-2-methylmorpholin-4-yl}methanone] |
| 36 | 12 | COc1cc(C(=O)N2CC(C)(CCO)OCC2(C)C)cc2nc(NCc3cc(Cl)ccn3)oc12 (racemic) [Example 32, (2-{[(4-Chloropyridin-2-yl)methyl]amino}-7-methoxy-1,3-benzoxazol-5-yl) [2-(2-hydroxyethyl)-2,5,5-trimethylmorpholin-4-yl]methanone] |
| 30 | 20 | COc1cc(C(=O)N2CC(C)OCC2CC(C)(C)O)cc2nc(NCc3cc(Cl)ccn3)oc12 (single isomer, unassigned) [Example 57, (2-{[(4-Chloropyridin-2-yl)methyl]amino}-7-methoxy-1,3-benzoxazol-5-yl) [5-(2-hydroxy-2-methylpropyl)-2-methylmorpholin-4-yl]methanone] |
| 32 | 12 | CCC1C(=O)NC(C)CN1C(=O)c1cc(OC)c2oc(NCc3cc(Cl)ccn3)nc2c1 (single isomer, unassigned) [Example 81, 4-[(2-{[(4-Chloropyridin-2-yl)methyl]amino}-7-methoxy-1,3-benzoxazol-5-yl)carbonyl]-3-ethyl-6-methylpiperazin-2-one] |
| 35 | 11 | COc1cc(C(=O)N2CC(C)(CCO)OCC2C(F)F)cc2nc(NCc3cc(Cl)ccn3)oc12 (stereo not shown) [Example 54, (2-{[(4-Chloropyridin-2-yl)methyl]amino}-7-methoxy-1,3-benzoxazol-5-yl) [5-(difluormethyl)-2-(2-hydroxyethyl)-2-methylmorpholin-4-yl]methanone] |
| 14 | 4.5 | CCC1C(=O)NC2(CC2)CN1C(=O)c1cc(OC)c2oc(NCc3cc(Cl)ccn3)nc2c1 (single isomer, unassigned) [Example 79, 7-[(2-{[(4-Chloropyridin-2-yl)methyl]amino}-7-methoxy-1,3-benzoxazol-5-yl)carbonyl]-6-ethyl-4,7-diazaspiro[2.5]octan-5-one] |
| 90 | 60 | COc1cc(C(=O)N2CC(C)(C)OC[C@H]2CCO)cc2nc(NC(C)c3cc(Cl)ccn3)oc12 (stereo partly drawn) [Example 59, (2-{[1-(4-Chloropyridin-2-yl)ethyl]amino}-7-methoxy-1,3-benzoxazol-5-yl)[(5R)-5-(2-hydroxyethyl)-2,2-dimethylmorpholin-4-yl]methanone] |
| 65 | 25 | COCC1COC(C)(CCO)CN1C(=O)c1cc(OC)c2oc(NCc3cc(Cl)ccn3)nc2c1 (stereo not shown) [Example 30] |
| 7.6 | 2.1 | COc1cc(C(=O)N2CC(C)(CC(C)O)OC[C@H]2C)cc2nc(NC(C)c3cc(Cl)ccn3)oc12 (single isomer, unassigned) [Example 27] |
